The values below are quoted from earlier work in patent US11019825B2, “Product” (priority 2015, dated 2021).

One data set deals with canola seedlings. Particulars: low concentrations.

On to Harzianic acid, for which the “antibiotic activity in vitro” value with Pythium irregulare, in the data set with Sclerotinia sclerotiorum and with Rhizoctonia solani was “antibiotic activity” throughout. For the same substance, the “plant growth promotion effect” value in the data set on canola seedlings is on record as “plant growth promotion effect”.
